Source: article PMC6657216, “Defining the Contribution of CYP1A1 and CYP1A2 to Drug Metabolism Using Humanized CYP1A1/1A2 and Cyp1a1/Cyp1a2 Knockout Mice” (Drug Metabolism and Disposition, 2019)
Several values for one entry are separate records, joined by “and”; a condition that tells them apart may be missing. Identical values can stand only once. Like-named read-outs stand apart in the source and are kept apart here.

Key:
[1] = tested on: liver microsomes from TCDD-treated hCYP1A1/1A2 mice; assay: EROD in liver microsomes from TCDD-treated hCYP1A1/1A2 mice: individual contribution of CYP1A1, CYP1A2 and non-Cyp1a; type: in vitro ADME, mouse
Experimental: (§1) Protein enzyme/concentrations were 3.46 pmol/ml for recombinant human CYP1A1, 10.8 pmol/ml for recombinant human CYP1A2, 0.05 mg protein/ml for liver microsomes from TCDD-treated hCYP1A1/1A2 mice, and 0.25 mg protein/ml for liver microsomes from TCDD-treated Cyp1 KO mice and vehicle-treated hCYP1A1/1A2 mice. Where needed, total protein concentration in the reaction mixtures was adjusted using Control Bactosomes (Cypex), so all reactions (including those with the recombinant cytochrome P450s) were carried out at a total protein concentration of 0.25 mg protein/ml. Generation of fluorescent product was registered in a kinetic mode (excitation filter, 530 nm; emission filter, 584 nm). Slopes of the linear part of the kinetic curves were calculated using Ascent Software version 2.4.1 (Labsystems). For each well with the reaction medium, there was a control well containing the reaction mixture with resorufin (40 pmol). Before addition of NADPH to the reaction wells, fluorescence was recorded both from the reaction and from the control wells. The average fluorescence was calculated, and the difference between wells with and without resorufin was used for the conversion of the relative fluorescence units to the picomoles of the reaction product.

liver microsomes = assay: Constitutive EROD and MROD activity in liver microsomes of WT, Cyp1a KO and hCYP1A1/1A2 mice; type: in vitro ADME, mouse
Experimental: A mixture of ER (0.93 μM) or MR (0.46 μM) and liver microsomes (0.004–0.27 mg protein/ml) in 100 mM potassium phosphate buffer (pH 7.4) supplemented with MgCl2 (3.3 mM) was incubated at 37°C for 5 minutes before the reaction was initiated by injection of NADPH (final concentration, 1.2 mM). […] Activities in duodenum, ileum, jejunum, colon, lung, kidney, spleen, heart, brain, and testis microsomes were measured as described earlier except for the following adjustments: MR concentration was 1 μM, concentration of total microsomal protein in the reaction was in the range of 0.07–0.43 mg/ml, and amount of resorufin added to calculate the reaction product concentration was 40 pmol.

recombinant human CYP1A2 [2] = target: T1, recombinant human CYP1A2 (Homo sapiens, UniProt P05177); conditions: read-out: Km ± S.E.; EROD; rCYP1A2
T1 sequence (P05177 1-516): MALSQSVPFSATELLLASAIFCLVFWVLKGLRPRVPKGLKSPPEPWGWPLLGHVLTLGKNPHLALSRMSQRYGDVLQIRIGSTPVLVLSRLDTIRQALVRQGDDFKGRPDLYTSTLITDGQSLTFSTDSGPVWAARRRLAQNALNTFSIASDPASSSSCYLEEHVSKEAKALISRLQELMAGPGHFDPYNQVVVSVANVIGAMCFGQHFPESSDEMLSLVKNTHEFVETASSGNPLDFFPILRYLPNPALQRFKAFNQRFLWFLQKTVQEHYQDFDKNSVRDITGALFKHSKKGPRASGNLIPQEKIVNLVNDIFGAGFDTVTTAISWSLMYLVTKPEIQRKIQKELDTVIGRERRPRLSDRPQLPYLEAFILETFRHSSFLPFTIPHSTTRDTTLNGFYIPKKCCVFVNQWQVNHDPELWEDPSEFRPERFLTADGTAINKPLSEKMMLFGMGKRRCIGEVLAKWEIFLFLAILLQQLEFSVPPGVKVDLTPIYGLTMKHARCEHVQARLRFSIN
Experimental: as §1

Recombinant rat CYP1A1 = tested on: Recombinant rat CYP1A1; set-up: method as in Namkung et al., 1988; conditions: recombinant rat enzymes; ref Namkung et al., 1988; cited from earlier work
recombinant human CYP1A1 [3] = target: T2, recombinant human CYP1A1 (Homo sapiens, UniProt P04798); assay: EROD by recombinant human CYP1A1 with and without quinidine; conditions: for Kd: EROD, rCYP1A1
T2 sequence (P04798 1-512): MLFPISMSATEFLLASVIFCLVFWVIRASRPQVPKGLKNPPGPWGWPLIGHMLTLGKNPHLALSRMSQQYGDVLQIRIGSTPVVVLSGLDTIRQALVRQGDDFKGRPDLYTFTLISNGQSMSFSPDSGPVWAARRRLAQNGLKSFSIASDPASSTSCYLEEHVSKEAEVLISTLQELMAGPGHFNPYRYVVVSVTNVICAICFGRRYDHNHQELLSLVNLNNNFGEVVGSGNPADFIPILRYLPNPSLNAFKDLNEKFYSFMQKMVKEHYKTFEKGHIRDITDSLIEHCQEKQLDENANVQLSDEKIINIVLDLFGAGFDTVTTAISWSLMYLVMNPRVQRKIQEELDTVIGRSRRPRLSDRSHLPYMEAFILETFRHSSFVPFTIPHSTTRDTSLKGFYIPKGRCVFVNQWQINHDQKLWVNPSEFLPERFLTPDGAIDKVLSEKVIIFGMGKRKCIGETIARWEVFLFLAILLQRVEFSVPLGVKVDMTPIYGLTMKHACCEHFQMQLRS
Experimental: (§2) Where needed, total protein concentration in the reaction mixtures was adjusted using Control Bactosomes (Cypex), so all reactions (including those with the recombinant cytochrome P450s) were carried out at a total protein concentration of 0.25 mg protein/ml. […] Slopes of the linear part of the kinetic curves were calculated using Ascent Software version 2.4.1 (Labsystems). For each well with the reaction medium, there was a control well containing the reaction mixture with resorufin (40 pmol). Before addition of NADPH to the reaction wells, fluorescence was recorded both from the reaction and from the control wells. The average fluorescence was calculated, and the difference between wells with and without resorufin was used for the conversion of the relative fluorescence units to the picomoles of the reaction product.

recombinant human CYP1A1 [4] = target: T2, recombinant human CYP1A1; set-up: host or cells: bacteria (membrane / 'bacterial microsomes' preparation); method as in Liu et al., 2004; conditions: recombinant human enzymes; ref Liu et al., 2004; cited from earlier work
[5] = tested on: liver microsomes from TCDD-treated Cyp1a KO mice (non-Cyp1a component); assay: EROD in liver microsomes from TCDD-treated Cyp1a KO mice with and without quinidine
Experimental: as §1

[6] = tested on: liver microsomes from TCDD-treated hCYP1A1/1A2 mice; assay: MROD in liver microsomes from TCDD-treated hCYP1A1/1A2 mice: individual contribution of CYP1A1, CYP1A2 and non-Cyp1a; type: in vitro ADME, mouse
Experimental: as §1

recombinant human CYP1A1 [7] = target: T2, recombinant human CYP1A1; assay: MROD by recombinant human CYP1A1, inhibition by quinidine
Experimental: (§3) Slopes of the linear part of the kinetic curves were calculated using Ascent Software version 2.4.1 (Labsystems).
as §2

recombinant human CYP1A2 [8] = target: T1, recombinant human CYP1A2; assay: MROD by recombinant human CYP1A2, inhibition by quinidine; conditions: MROD, rCYP1A2
Experimental: as §3, §2

[9] = tested on: liver microsomes from TCDD-treated Cyp1a KO mice (non-Cyp1a component); assay: MROD in liver microsomes from TCDD-treated Cyp1a KO mice with and without quinidine
Experimental: as §1

[10] = liver microsomes from TCDD-treated hCYP1A1/1A2 mice, nonlinear regression eq. 7
[11] = quinidine 200 μM, low concentration of ER
[12] = 200 μM quinidine, increased substrate concentration
[13] = 200 μM quinidine, low concentrations of MR
[14] = absence of inhibitor, low substrate concentrations
[15] = liver microsomes from TCDD-treated hCYP1A1/1A2 mice, nonlinear regression eq. 8

SMILES: CCOc1ccc2nc3ccc(=O)cc-3oc2c1 [ER, 7-ethoxyresorufin]
- CYP1A1 contribution to EROD ([1]; absence of quinidine, 1 μM ER): 70%
- CYP1A2 contribution to EROD ([1]; absence of quinidine, 6 μM ER): ~45%
- CYP1A1 contribution to EROD ([1]; absence of quinidine, 6 μM substrate): ~51%
- CYP1A1 contribution to EROD ([1]; absence of quinidine, low (10 pM) substrate concentration): ~94%
- CYP1A2 contribution to EROD ([1]; absence of quinidine, low substrate concentration): ~4.8%
- Vmax for CYP1A1, EROD [1, 10]: 2800 pmol/min/mg protein
- Vmax for CYP1A2, EROD [1, 10]: 1900 pmol/min/mg protein and 1909 pmol/min/mg protein
- CYP1A1 contribution to EROD [1, 11]: ~22%
- CYP1A2 contribution to EROD [1, 11]: 70%
- non-CYP1A contribution to EROD [1, 11]: 8%
- decrease of EROD activity relative to WT animals (liver microsomes; liver microsomes from Cyp1a KO mice, untreated): 22%
- constitutive EROD activity relative to WT (liver microsomes; liver microsomes from hCYP1A1/1A2 mice): 155%
- Km (recombinant human CYP1A2 [2]): 1.2 µM
- EROD activity of CYP1A1 compared to CYP1A2 (times more active) (Recombinant rat CYP1A1): ~59 times
- Kd (recombinant human CYP1A1 [3]; read-out: Ks1 ± S.E., productive enzyme-substrate complex): 0.09 ± 0.008 µM
- Kd (recombinant human CYP1A1 [3]; read-out: Ks2 ± S.E., inhibitory enzyme-substrate complex): 11 ± 1 µM
- kcat (recombinant human CYP1A1 [3]; recombinant CYP1A1, Vmax 3300 at 71 pmol/mg protein): 0.783 s⁻¹
- Vmax (recombinant human CYP1A1 [3]; recombinant CYP1A1, enzyme concentration 71 pmol/mg protein): 3300 pmol/min/mg protein
- EROD activity of CYP1A1 compared with CYP1A2 (times more active) (recombinant human CYP1A1 [4]): ~2.8 times
- Kd ([5]; read-out: Ks1 ± S.E.): 0.83 ± 0.04 µM
- Kd ([5]; read-out: Ks2 ± S.E.): 13 ± 1.5 µM

SMILES: COc1ccc2nc3ccc(=O)cc-3oc2c1 [MR, 7-methoxyresorufin]
- Non-Cyp1a contribution to MROD [6]: ≤ 1.5%
- CYP1A1 contribution to MROD [6, 12]: ~9%
- CYP1A2 contribution to MROD [6, 12]: ~90%
- CYP1A1 contribution to MROD [6, 13]: less than 1%
- CYP1A2 contribution to MROD [6, 13]: ~98%
- CYP1A1 contribution to MROD ([6]; absence of inhibitor, 6 μM MR): ~18%
- CYP1A2 contribution to MROD ([6]; absence of inhibitor, 6 μM MR): ~81%
- CYP1A1 contribution to MROD [6, 14]: 49%
- CYP1A2 contribution to MROD [6, 14]: 50%
- Vmax for CYP1A1, MROD [6, 15]: 1600 pmol/min/mg protein
- Vmax for CYP1A2, MROD [6, 15]: 2000 pmol/min/mg protein and 1969 pmol/min/mg protein
- MROD activity compared with WT animals (liver microsomes; hCYP1A1/1A2 mouse line liver microsomes): unchanged
- decrease of MROD compared with WT animals (liver microsomes; liver microsomes from Cyp1a KO mice): approximately 90%
- MROD activity of CYP1A1 compared to CYP1A2 (times less active) (Recombinant rat CYP1A1): ~14 times
- Kd (recombinant human CYP1A1 [7]; read-out: Ks1 ± S.E., rCYP1A1): 0.47 ± 0.07 µM
- Kd (recombinant human CYP1A1 [7]; read-out: Ks2 ± S.E., rCYP1A1): 1.3 ± 0.18 µM
- Kd (recombinant human CYP1A2 [8]; read-out: Ks1 ± S.E.): 0.58 ± 0.08 µM
- Kd (recombinant human CYP1A2 [8]; read-out: Ks2 ± S.E.): 12 ± 3.5 µM
- MROD activity of CYP1A1 compared with CYP1A2 (times less active) (recombinant human CYP1A1 [4]): ~5.8 times
- Kd ([9]; read-out: Ks1 ± S.E.): 0.96 ± 0.18 µM
- Kd ([9]; read-out: Ks2 ± S.E.): 3.4 ± 0.8 µM
